# pIC50: −log10 of the molar value.
# Assays:
# [1] = biological target: T1, recombinant human SK (Homo sapiens, UniProt Q9NYA1); experiment: Recombinant human SK assay with [3H]sphingosine; format: biochemical; conditions: positive control
# T1 construct: glutathione-S-transferase (GST) (N); made in house; host or cells: bacteria (pGEX vector)
# Method: (§1) An assay for identifying inhibitors of recombinant human SK has been established (French et al., 2003, Cancer Res 63: 5962). cDNA for human SK was subcloned into a pGEX bacterial expression vector, which results in expression of the enzyme as a fusion protein with glutathione-S-transferase, and the fusion protein is then purified on a column of immobilized glutathione. SK activity is measured by incubation of the recombinant SK with [^3H]sphingosine and 1 mM ATP under defined conditions, followed by extraction of the assay mixture with chloroform:methanol under basic conditions. […] Radioactivity in aliquots of the aqueous phase is then quantified as a measure of [^3H]S1P formation. There is a low background level of partitioning of [^3H]sphingosine into the aqueous phase, and addition of the recombinant SK greatly increases the formation of [^3H]S1P.
# [2] = tested on: MCF-7 human breast adenocarcinoma cells; experiment: Cytotoxicity, SRB assay, 48 h; format: cell-based; conditions: Homo sapiens, MCF7; Table 6; 48 h, SRB, inhibition of cell proliferation; read-out: MCF-7 IC50
# Method: To further assess the biological efficacies of the Compounds in intact cells, each Compound was evaluated for cytotoxicity using human cancer cell lines. These experiments followed methods that have been extensively used. Cell lines tested included MCF-7 human breast adenocarcinoma cells. The indicated cell lines were treated with varying doses of the test Compound for 48 h. Cell survival was then determined using the SRB binding assay (Skehan et al., 1990, J Natl Cancer Inst 82: 1107), and the concentration of compound that inhibited proliferation by 50% (the IC50) was calculated. Values (in μM) represent the mean±sd for replicate trials.
# [3] = biological target: T1, recombinant human SK; experiment: Inhibition of recombinant human SK, LC/MS/MS assay; format: biochemical; conditions: 6 μg/ml compound
# Method: as §1
# In an alternate assay procedure, the recombinant human SK was incubated with unlabeled sphingosine and ATP as described above. After 30 minutes, the reactions were terminated by the addition of acetonitrile to directly extract the newly synthesized S1P. The amount of S1P in the samples is then quantified as follows. C17 base D-erythro-sphingosine and C17 S1P are used as internal standards for sphingosine and S1P, respectively. These seventeen-carbon fatty acid-linked sphingolipids are not naturally produced, making these analogs excellent standards. The lipids are then fractionation by High-Performance Liquid Chromatography using a C8-reverse phase column eluted with 1 mM methanolic ammonium formate/2 mM aqueous ammonium formate. A Finnigan LCQ Classic LC-MS/MS is used in the multiple reaction monitoring positive ionization mode to acquire ions at m/z of 300 (precursor ion)→282 (product ion) for sphingosine and 380→264 for S1P. Calibration curves are generated by plotting the peak area ratios of the synthetic standards for each sphingolipid, and used to determine the normalized amounts of sphingosine and S1P in the samples.
# Each Compound of this invention was tested for its ability to inhibit recombinant SK using the LC/MS/MS assay described above. Typically, the Compounds were individually dissolved in dimethylsulfoxide and tested at a final concentration of 6 micrograms/ml.
# [4] = tested on: endogenous SK in MDA-MB-231 human breast carcinoma cells; experiment: Intact cell assay of endogenous SK ([3H]sphingosine to [3H]S1P); format: cell-based; conditions: MDA-MB-231 cells, 20 μg/ml compound
# Method: We have previously described an intact cell assay where, following treatment with a test compound, MDA-MB-231 human breast carcinoma cells are incubated with [^3H]sphingosine at a final concentration of 1 μM (French et al., 2003, Cancer Res 63: 5962). The cells take up the exogenous [^3H]sphingosine and convert it to [^3H]S1P through the action of endogenous SK. The resulting [^3H]S1P is isolated via charge-based separation as indicated above. […] For potency studies, MDA-MB-231 cells were exposure to varying concentrations of a test Compound and then assayed for conversion of [^3H]sphingosine to [^3H]S1P.
# T1 sequence (Q9NYA1 whole entry): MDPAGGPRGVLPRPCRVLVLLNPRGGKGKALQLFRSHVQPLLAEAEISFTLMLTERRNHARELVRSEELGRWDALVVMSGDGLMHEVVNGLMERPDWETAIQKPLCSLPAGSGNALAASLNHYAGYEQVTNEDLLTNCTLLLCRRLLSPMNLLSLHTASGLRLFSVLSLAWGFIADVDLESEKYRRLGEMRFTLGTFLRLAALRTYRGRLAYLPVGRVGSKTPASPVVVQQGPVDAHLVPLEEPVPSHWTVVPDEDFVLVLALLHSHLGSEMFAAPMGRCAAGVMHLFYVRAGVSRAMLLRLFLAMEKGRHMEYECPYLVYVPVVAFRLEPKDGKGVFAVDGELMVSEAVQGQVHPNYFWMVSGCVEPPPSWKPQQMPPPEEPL
Structure (SMILES),concentrations at which SK activity is completely inhibited [1],pIC50 [2],inhibition at 6 µg/mL [3] [%],Cellular S1P (% inhibition) [4] [%]
"CCCCCCCCCCCCC/C=C/[C@@H](O)[C@H](CO)N(C)C [DMS, D-erythro-N,N-dimethylsphingosine]",above 25 μM,,,
"Clc1ccc(-c2csc(N(Cc3ccccc3)Cc3ccccc3)n2)cc1 [Compound 72, Dibenzyl-[4-(4-chloro-phenyl)-thiazol-2-yl]-amine]",,3.90,79,
"O=C(C=Cc1ccccc1)Nc1nc(-c2ccc(Cl)cc2)cs1 [Compound 7, N-[4-(4-Chloro-phenyl)-thiazol-2-yl]-3-phenyl-acrylamide]",,4.74,71,
"O=C(Nc1nc2cc(Cl)ccc2o1)c1cccc(F)c1 [Compound 97, N-(5-Chloro-benzooxazol-2-yl)-3-fluoro-benzamide]",,5.77,71,
"CCCC(=O)Oc1cccc(C=CC(=O)Nc2nc(-c3ccc(Cl)cc3)cs2)c1 [Compound 14, Butyric acid 3-{2-[4-(4-chloro-phenyl)-thiazol-2-ylcarbamoyl]-vinyl}-phenyl ester]",,5.54,0,
"Clc1ccc(-c2csc(N(CCCc3ccccc3)CCCc3ccccc3)n2)cc1 [Compound 71, [4-(4-Chloro-phenyl)-thiazol-2-yl]-bis-(3-phenyl-propyl)-amine]",,3.95,44,
"CCCCCCCCCCCCCCCC(=O)Nc1nc(-c2ccc(Cl)cc2)cs1 [Compound 3, Hexadecanoic acid [4-(4-chloro-phenyl)-thiazol-2-yl]-amide]",,3.95,88,34
"CCCC(=O)Oc1ccc(C=CC(=O)Nc2nc(-c3ccc(Cl)cc3)cs2)cc1 [Compound 15, Butyric acid 4-{2-[4-(4-chloro-phenyl)-thiazol-2-ylcarbamoyl]-vinyl}-phenyl ester]",,5.54,73,
"CCCCCCCCC=CCCCCCCCC(=O)Nc1nc(-c2ccc(Cl)cc2)cs1 [Compound 6, Octadec-9-enoic acid [4-(4-chloro-phenyl)-thiazol-2-yl]-amide]",,3.98,0,
"CCCC(=O)Oc1ccc(CCC(=O)Nc2nc(-c3ccc(Cl)cc3)cs2)cc1OC [Compound 29, Butyric acid 4-{2-[4-(4-chloro-phenyl)-thiazol-2-ylcarbamoyl]-ethyl}-2-methoxy-phenyl ester]",,4.59,0,
"CN(C)c1ccc(CNC(=O)c2nc(-c3ccc(Cl)cc3)cs2)cc1 [Compound 35, 4-(4-Chloro-phenyl)-thiazole-2-carboxylic acid 4-dimethylamino-benzylamide]",,3.89,80,
"O=C(C=Cc1ccc([N+](=O)[O-])cc1)Nc1nc(-c2ccc(Cl)cc2)cs1 [Compound 5, N-[4-(4-Chloro-phenyl)-thiazol-2-yl]-3-(4-nitro-phenyl)-acrylamide]",,4.80,0,
"COc1cc(C=CC(=O)Nc2nc(-c3ccc(Cl)cc3)cs2)ccc1OC(C)=O [Compound 10, Acetic acid 4-{2-[4-(4-chloro-phenyl)-thiazol-2-ylcarbamoyl]-vinyl}-2-methoxy-phenyl ester]",,4.62,100,
"CCCCCCCCCCCCCC(=O)Nc1nc(-c2ccc(Cl)cc2)cs1 [Compound 2, Tetradecanoic acid [4-(4-chloro-phenyl)-thiazol-2-yl]-amide]",,5.72,30,
"C=CCCCCCCCCC(=O)Nc1nc(-c2ccc(Cl)cc2)cs1 [Compound 4, Undec-10-enoic acid [4-(4-chloro-phenyl)-thiazol-2-yl]-amide]",,4.48,53,
